According to patent US8497278B2, “Imidazo[1,2-a]pyridine compounds” (priority 2008, dated 2013):

Assays:
[1] = target: T1, α1 subtype containing GABA-A receptors (Homo sapiens, UniProt P14867+P18507); experiment: Two-electrode voltage clamp electrophysiology in Xenopus oocytes, potentiation of GABA EC20 response, α1; assay type: cell-based; details: 100 nM compound; for activation at 0.1 µM: read-out: Percentage of potentiation alpha1
T1 construct: expressed in transfected cells; host or cells: Xenopus laevis oocytes, cRNA injected
Method in brief: (§1)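 Compounds are tested at 100 nM, one per oocyte, against an EC20 GABA (60 μM) response in human α1-, α2-, α3- or α5-β3-γ2L receptors clamped at −80 mV. Oocytes showing rapid desensitization or weak chlordiazepoxide (1 μM) potentiation are excluded.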

[2] = target: T2, α2 subtype containing GABA-A receptors (Homo sapiens, UniProt P18507+P47869); experiment: Two-electrode voltage clamp electrophysiology in Xenopus oocytes, potentiation of GABA EC20 response, α2; assay type: cell-based; details: 100 nM compound; for activation at 0.1 µM: read-out: Percentage of potentiation alpha2
T2 construct: expressed in transfected cells; host or cells: Xenopus laevis oocytes, cRNA injected
Method in brief: as §1

[3] = test system: central benzodiazepine receptors; experiment: Central benzodiazepine receptor binding (test of Speth et al.); details: 1000 nM of the compound
Method in brief: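 Radioligand binding by the Speth et al. method. Specific binding is total minus nonspecific binding, the latter measured with excess unlabelled ligand. Compounds screened at 1.0E-09, 1.0E-07 and 1.0E-05 M in single determination; values given as percent inhibition at 1000 nM compound.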

T1 sequence (P14867 28-456): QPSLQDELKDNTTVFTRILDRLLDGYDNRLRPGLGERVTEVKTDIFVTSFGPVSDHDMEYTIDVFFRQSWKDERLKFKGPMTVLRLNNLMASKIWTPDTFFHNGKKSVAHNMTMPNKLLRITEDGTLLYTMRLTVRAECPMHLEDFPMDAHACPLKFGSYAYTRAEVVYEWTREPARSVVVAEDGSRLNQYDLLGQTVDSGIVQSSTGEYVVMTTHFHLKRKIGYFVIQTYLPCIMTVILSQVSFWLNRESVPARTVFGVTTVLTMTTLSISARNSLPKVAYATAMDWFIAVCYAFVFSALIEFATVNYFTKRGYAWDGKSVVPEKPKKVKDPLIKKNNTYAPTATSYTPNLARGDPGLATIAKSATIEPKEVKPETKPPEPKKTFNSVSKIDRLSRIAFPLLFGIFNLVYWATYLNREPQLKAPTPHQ
T1 sequence (P28472 26-473 partner): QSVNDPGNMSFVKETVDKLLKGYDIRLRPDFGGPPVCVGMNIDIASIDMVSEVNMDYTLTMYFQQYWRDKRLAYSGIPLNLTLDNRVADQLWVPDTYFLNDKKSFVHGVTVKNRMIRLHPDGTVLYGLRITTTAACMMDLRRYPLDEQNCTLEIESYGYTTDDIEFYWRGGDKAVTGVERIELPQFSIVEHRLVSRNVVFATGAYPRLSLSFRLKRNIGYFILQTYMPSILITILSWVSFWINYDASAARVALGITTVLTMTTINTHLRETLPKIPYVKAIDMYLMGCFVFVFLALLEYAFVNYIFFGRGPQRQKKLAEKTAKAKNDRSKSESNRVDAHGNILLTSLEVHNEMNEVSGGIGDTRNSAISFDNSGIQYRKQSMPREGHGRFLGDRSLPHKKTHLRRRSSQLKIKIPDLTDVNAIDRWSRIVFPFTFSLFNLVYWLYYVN
T1 sequence (P18507 40-475): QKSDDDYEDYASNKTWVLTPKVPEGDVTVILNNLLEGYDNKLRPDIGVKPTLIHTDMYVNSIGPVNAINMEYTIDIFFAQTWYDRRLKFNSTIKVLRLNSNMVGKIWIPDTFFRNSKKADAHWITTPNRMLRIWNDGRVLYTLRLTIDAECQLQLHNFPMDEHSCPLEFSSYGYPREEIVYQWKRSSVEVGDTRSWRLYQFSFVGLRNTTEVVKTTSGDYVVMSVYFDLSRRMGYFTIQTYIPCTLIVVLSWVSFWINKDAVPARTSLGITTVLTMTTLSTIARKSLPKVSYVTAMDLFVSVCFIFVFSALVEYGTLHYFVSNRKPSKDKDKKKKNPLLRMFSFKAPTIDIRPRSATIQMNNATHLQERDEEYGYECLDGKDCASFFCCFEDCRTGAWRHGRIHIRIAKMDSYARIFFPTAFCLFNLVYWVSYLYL
T2 sequence (P47869 29-451): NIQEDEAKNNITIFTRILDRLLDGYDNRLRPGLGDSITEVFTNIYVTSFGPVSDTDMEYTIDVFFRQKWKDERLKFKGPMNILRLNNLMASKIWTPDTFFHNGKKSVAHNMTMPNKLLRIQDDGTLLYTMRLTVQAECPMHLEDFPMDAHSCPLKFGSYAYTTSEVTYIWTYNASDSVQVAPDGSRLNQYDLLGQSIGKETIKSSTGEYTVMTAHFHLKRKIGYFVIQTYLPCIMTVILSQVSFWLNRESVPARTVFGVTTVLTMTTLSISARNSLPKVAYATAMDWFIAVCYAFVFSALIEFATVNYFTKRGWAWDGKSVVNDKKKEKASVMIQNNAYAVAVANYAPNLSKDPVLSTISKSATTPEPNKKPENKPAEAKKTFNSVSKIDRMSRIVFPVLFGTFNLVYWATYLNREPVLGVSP
T2 sequence (P28472 26-473 partner): as the sequence (P28472 26-473 partner) above
T2 sequence (P18507 40-475): as the sequence (P18507 40-475) above

Structure (SMILES)	activation at 0.1 µM [1]	activation at 0.1 µM [2]	% Inhibition at 1000 nM for CBZD [3]	Percentage of potentiation alpha1 [1]	Percentage of potentiation alpha2 [2]
CNC(=O)c1ncnn1Cc1c(-c2ccc(Cl)cc2)nc2cccnn12 [Compound 90, 1-((2-(4-chlorophenyl)imidazo[1,2-b]pyridazin-3-yl)methyl)-N-methyl-1H-1,2,4-triazole-5-carboxamide]	10 to 50%	10 to 50%	++ (percentage of inhibition of central BZD site binding is greater than 80% in the presence of 1000 nM of the compound)		
Cc1ccc2nc(-c3ccc(F)cc3)c(Cn3cncn3)n2c1 [Compound 63, 3-((1H-1,2,4-triazol-1-yl)methyl)-2-(4-fluorophenyl)-6-methylH-imidazo[1,2-a]pyridine]			++ (percentage of inhibition of central BZD site binding is greater than 80% in the presence of 1000 nM of the compound)	+ (percentage of potentiation is greater than or equal to 10% but less than 50% in the presence of 100 nM of the compound)	0 (percentage of potentiation is between about 10% to about −10%)
COC(=O)c1ncnn1Cc1c(-c2ccccc2)nc2ccc(Cl)cn12 [Compound 44, 2-(6-Chloro-2-phenyl-imidazo[1,2-a]pyridin-3-ylmethyl)-2H-[1,2,4]triazole-3-carboxylic acid methyl ester]	-10 to 10%	-10 to 10%	++ (percentage of inhibition of central BZD site binding is greater than 80% in the presence of 1000 nM of the compound)		
Fc1ccc(-c2nc3ccc(Cl)cn3c2Cn2cncn2)cc1 [Compound 62, 3-((1H-1,2,4-triazol-1-yl)methyl)-6-chloro-2-(4-fluorophenyl)H-imidazo[1,2-a]pyridine]			++ (percentage of inhibition of central BZD site binding is greater than 80% in the presence of 1000 nM of the compound)	+ (percentage of potentiation is greater than or equal to 10% but less than 50% in the presence of 100 nM of the compound)	0 (percentage of potentiation is between about 10% to about −10%)
O=c1c2ccccc2[nH]n1Cc1c(-c2ccc(Cl)cc2)nc2ccccn12 [Compound 118, 2-((2-(4-chlorophenyl)imidazo[1,2-a]pyridin-3-yl)methyl)-1H-indazol-3(2H)-one]	10 to 50%	≥ 50%	++ (percentage of inhibition of central BZD site binding is greater than 80% in the presence of 1000 nM of the compound)		
Cc1noc(-c2nccn2Cc2c(-c3ccc(Cl)cc3)nc3ccccn23)n1 [Compound 27, 2-(4-chlorophenyl)-3-((2-(3-methyl-1,2,4-oxadiazol-5-yl)-1H-imidazol-1-yl)methyl)H-imidazo[1,2-a]pyridine]			++ (percentage of inhibition of central BZD site binding is greater than 80% in the presence of 1000 nM of the compound)	+ (percentage of potentiation is greater than or equal to 10% but less than 50% in the presence of 100 nM of the compound)	+ (percentage of potentiation is greater than or equal to 10% but less than 50% in the presence of 100 nM of the compound)
COc1ccc(NCc2c(-c3ccccc3)nc3ccc(Cl)cn23)nn1 [Compound 165, N-((6-chloro-2-phenylimidazo[1,2-a]pyridin-3-yl)methyl)-6-methoxypyridazin-3-amine]	10 to 50%	10 to 50%	++ (percentage of inhibition of central BZD site binding is greater than 80% in the presence of 1000 nM of the compound)		
Cc1cccn(Cc2c(-c3ccc(Cl)cc3)nc3ccc(F)cn23)c1=O [Compound 121, 1-((2-(4-chlorophenyl)-6-fluoroimidazo[1,2-a]pyridin-3-yl)methyl)-3-methylpyridin-2(1H)-one]	≥ 50%	≥ 50%	++ (percentage of inhibition of central BZD site binding is greater than 80% in the presence of 1000 nM of the compound)		
Cc1nnc(Cc2c(-c3ccc(Cl)cc3)nc3ccccn23)o1 [Compound 204, 2-((2-(4-chlorophenyl)imidazo[1,2-a]pyridin-3-yl)methyl)-5-methyl-1,3,4-oxadiazole]	-10 to 10%	10 to 50%	++ (percentage of inhibition of central BZD site binding is greater than 80% in the presence of 1000 nM of the compound)		
CN1CCN(C2=CC(=O)N(Cc3c(-c4ccc(Cl)cc4)nc4ccccn34)C2)CC1 [Compound 238, 1-((2-(4-chlorophenyl)imidazo[1,2-a]pyridin-3-yl)methyl)-4-(4-methylpiperazin-1-yl)-1H-pyrrol-2(5H)-one]	10 to 50%	10 to 50%	++ (percentage of inhibition of central BZD site binding is greater than 80% in the presence of 1000 nM of the compound)		
Clc1ccc(-c2nc3ccc(Cl)cn3c2Cn2ccnn2)cc1 [Compound 19, 3-((1H-1,2,3-triazol-1-yl)methyl)-6-chloro-2-(4-chlorophenyl)H-imidazo[1,2-a]pyridine]			++ (percentage of inhibition of central BZD site binding is greater than 80% in the presence of 1000 nM of the compound)	+ (percentage of potentiation is greater than or equal to 10% but less than 50% in the presence of 100 nM of the compound)	+ (percentage of potentiation is greater than or equal to 10% but less than 50% in the presence of 100 nM of the compound)
Fc1ccc(-c2nc3ccc(Cl)cn3c2CNc2nccc(C3CCCN3)n2)cc1 (stereo not drawn) [Compound 195]	≥ 50%	≥ 50%	++ (percentage of inhibition of central BZD site binding is greater than 80% in the presence of 1000 nM of the compound)		
Fc1ccc2nc(-c3ccc(Cl)cc3)c(Cn3ccnn3)n2c1 [Compound 57, 3-((1H-1,2,3-triazol-1-yl)methyl)-2-(4-chlorophenyl)-6-fluoroH-imidazo[1,2-a]pyridine]			++ (percentage of inhibition of central BZD site binding is greater than 80% in the presence of 1000 nM of the compound)	+ (percentage of potentiation is greater than or equal to 10% but less than 50% in the presence of 100 nM of the compound)	++ (percentage of potentiation is greater than or equal to 50% in the presence of 100 nM of the compound)
CNNc1cncc(Cc2c(-c3ccc(Cl)cc3)nc3ccccn23)n1 [Compound 193, 2-(4-chlorophenyl)-3-((6-(2-methylhydrazinyl)pyrazin-2-yl)methyl)imidazo[1,2-a]pyridine]	10 to 50%	10 to 50%	++ (percentage of inhibition of central BZD site binding is greater than 80% in the presence of 1000 nM of the compound)		
CCc1nccn1Cc1c(-c2ccc(C)cc2)nc2ccc(C)cn12 [Compound 4, 3-((2-Ethyl-1H-imidazol-1-yl)methyl)-6-methyl-2-p-tolylH-imidazo[1,2-a]pyridine]			++ (percentage of inhibition of central BZD site binding is greater than 80% in the presence of 1000 nM of the compound)	+ (percentage of potentiation is greater than or equal to 10% but less than 50% in the presence of 100 nM of the compound)	0 (percentage of potentiation is between about 10% to about −10%)
CN(C)CCNc1cc(Cc2c(-c3ccc(Cl)cc3)nc3ccccn23)ncn1 [Compound 243, N^1-(6-((2-(4-chlorophenyl)imidazo[1,2-a]pyridin-3-yl)methyl)pyrimidin-4-yl)-N^2,N^2-dimethylethane-1,2-diamine]	10 to 50%	10 to 50%	++ (percentage of inhibition of central BZD site binding is greater than 80% in the presence of 1000 nM of the compound)		
Cc1ccc2nc(-c3ccc(F)cc3)c(CNc3nc(C)cc(Cl)n3)n2c1 [Compound 160, 4-chloro-N-((2-(4-fluorophenyl)-6-methylimidazo[1,2-a]pyridin-3-yl)methyl)-6-methylpyrimidin-2-amine]	10 to 50%	10 to 50%	++ (percentage of inhibition of central BZD site binding is greater than 80% in the presence of 1000 nM of the compound)		
Cc1ccc(-c2nc3ccc(C)cn3c2Cn2cncn2)cc1 [Compound 7, 3-((1H-1,2,4-triazol-1-yl)methyl)-6-methyl-2-p-tolylH-imidazo[1,2-a]pyridine]			++ (percentage of inhibition of central BZD site binding is greater than 80% in the presence of 1000 nM of the compound)	+ (percentage of potentiation is greater than or equal to 10% but less than 50% in the presence of 100 nM of the compound)	+ (percentage of potentiation is greater than or equal to 10% but less than 50% in the presence of 100 nM of the compound)
Cn1ncnc1Cc1c(-c2ccc(Cl)cc2)nc2ccccn12 [Compound 207, 2-(4-Chlorophenyl)-3-((1-methyl-1H-1,2,4-triazol-5-yl)methyl)imidazo[1,2-a]pyridine]	10 to 50%	10 to 50%	++ (percentage of inhibition of central BZD site binding is greater than 80% in the presence of 1000 nM of the compound)		
